Results on seven molecules are retold here after patent publication US20230210891A1, “POLYSACCHARIDE COMPOSITIONS AND THERAPEUTIC GELS” (The University of Birmingham, priority 2020, published 2023).

Assay [1] has as its target T1, Collagen - Rat tail (Rattus norvegicus, UniProt P02454+P02466).
T1 construct: purchased Corning; host or cells: rat tail
The assay is described as follows: Collagen fibrillogenesis assay (turbidity, 405 nm plate reader). Conditions: for inhibition of collagen fibrillogenesis / collagen fibril formation: increasing doses of polymer. Format: biochemical. As to the method:
Collagen fibrillogenesis was undertaken using collagen acquired from Corning to assess the ability of carrageenans with different degrees of sulphation, gellan gum (LA) and heparan sulphate on their ability to alter fibrillogenesis.
• PBS - Dulbecco’s PBS pH 7.4 • Carrageenans (iota and kappa) (Sigma) • (CGLA) (Kelcogel; Lot #: 5C1623A) • Heparan sulphate (Tinzaparin - mw ~ 9000) • Collagen - Rat tail - Corning 4.04 mg/ml • Deionised water
1. Preparation of stock solutions: • a. A 0.2% (w/v) solution of both carrageenans, gellan and heparan in water were prepared. (0.1 g polymer in 50 ml water) • b. Mixtures were stirred until fully dispersed/hydrated. (prevent water loss by covering the beaker)
2. Preparation of Buffers: • a. PBS diluent buffer; • i. To 200 ml deionised water add sodium phosphate (0.35 g) (0.348 g)and sodium chloride (2.05 g) (2.061 g) • ii. Adjust pH to 7.40 and adjust final volume to 250 ml. • iii. Store at room temperature. • b. PBS reaction buffer; • i. To 200 ml deionised water add sodium phosphate (2.07 g) (2.081 g) and sodium chloride (4.09 g) (4.091 g) • ii. Adjust pH to 7.40. • iii. Add deionised water to create a final volume of 250 ml. • iv. Store at room temp.
3. Collagen fibrillogenesis assay: • a. Pipette […] of buffer (PBS) into rows A and B for blanks. • b. Standard curve generated in a dilution plate. Add 150 ml of each preparation into C1, D1 and E1. • c. Add 150 mL of sample to rows F1, G1 and H1. • d. Add […] of buffer (PBS) to the additional columns 2 to 12. • e. Using a multi-channel pipette, preform a 2-fold dilution by transferring […] from column 1 to column 2. Continue serial diluting through to column 12. Discard the extra […] from column 12. • f. Calculate volume of collagen needed to make 10 ml (enough for 1 plate) at a concentration of […] in chilled water and gently mix.
Target conc. (0.8 mg/ml)Collagen stock conc. in mg/ml × 10=ml of collagen required
10 ml- ?ml of collagen required= ??ml of water required • a. Add […] of collagen to each row (B to H). • b. Add 150 ml of phosphate buffer to all of the wells. • c. Incubate for 2-4 hrs at room temperature and analysed using 405 nm plate reader. (correct for the plate by using 570 nm reference)
Each sample was replicated 3 times, two polymers in each plate (2 plates total). Collagen standard and pbs only were obtained on each plate.

For assay [2], the system named is rat experimental model of glaucoma. The assay is described as follows: Study 2: intraocular pressure in rat experimental model of glaucoma (IC TGFβ1). The format is in vivo. Conditions: 10 µl eye drop twice a day, day 14 to 28. How it is done: A rat experimental model of glaucoma was used. All rats received twice weekly intracameral (IC) injections of 3.5 µl 5 µg/ml TGFβ1 from the start of the experiment (day 0) until the end (day 28). This establishes the experimental glaucoma model.
Intraocular pressure (IOP) measures were taken twice weekly using a rebound tonometer, between the hours of 9-11am (to reduce circadian fluctuations in IOP) and before TGFβ injections were administered.
On day 14 rats then also received a single 10 µl eye drop (ED) of either a composition of the invention or a composition representing the standard of care. The eyedrops were administered by pipette, twice a day, every day between day 14 and day 28. Gellan fluid gels were prepared as describe above, and the various sulphated polysaccharides investigated (dextran sulphate, fucoidan, or heparan sulphate) were mixed into the fluid gel at a concentration of 1 mg/ml prior to administration as a single formulation eye drop.
The most common eye drop prescribed clinically for the treatment of glaucoma is latanoprost 50 µg/ml (Xalatan®). Therefore, this treatment was used in this study for the standard of care (SOC).
The groups investigated in the study were as follows: […]

Entries after “also recorded” stand apart in the source; their conditions may differ.

T1 sequence (P02454 152-1207 limits assumed): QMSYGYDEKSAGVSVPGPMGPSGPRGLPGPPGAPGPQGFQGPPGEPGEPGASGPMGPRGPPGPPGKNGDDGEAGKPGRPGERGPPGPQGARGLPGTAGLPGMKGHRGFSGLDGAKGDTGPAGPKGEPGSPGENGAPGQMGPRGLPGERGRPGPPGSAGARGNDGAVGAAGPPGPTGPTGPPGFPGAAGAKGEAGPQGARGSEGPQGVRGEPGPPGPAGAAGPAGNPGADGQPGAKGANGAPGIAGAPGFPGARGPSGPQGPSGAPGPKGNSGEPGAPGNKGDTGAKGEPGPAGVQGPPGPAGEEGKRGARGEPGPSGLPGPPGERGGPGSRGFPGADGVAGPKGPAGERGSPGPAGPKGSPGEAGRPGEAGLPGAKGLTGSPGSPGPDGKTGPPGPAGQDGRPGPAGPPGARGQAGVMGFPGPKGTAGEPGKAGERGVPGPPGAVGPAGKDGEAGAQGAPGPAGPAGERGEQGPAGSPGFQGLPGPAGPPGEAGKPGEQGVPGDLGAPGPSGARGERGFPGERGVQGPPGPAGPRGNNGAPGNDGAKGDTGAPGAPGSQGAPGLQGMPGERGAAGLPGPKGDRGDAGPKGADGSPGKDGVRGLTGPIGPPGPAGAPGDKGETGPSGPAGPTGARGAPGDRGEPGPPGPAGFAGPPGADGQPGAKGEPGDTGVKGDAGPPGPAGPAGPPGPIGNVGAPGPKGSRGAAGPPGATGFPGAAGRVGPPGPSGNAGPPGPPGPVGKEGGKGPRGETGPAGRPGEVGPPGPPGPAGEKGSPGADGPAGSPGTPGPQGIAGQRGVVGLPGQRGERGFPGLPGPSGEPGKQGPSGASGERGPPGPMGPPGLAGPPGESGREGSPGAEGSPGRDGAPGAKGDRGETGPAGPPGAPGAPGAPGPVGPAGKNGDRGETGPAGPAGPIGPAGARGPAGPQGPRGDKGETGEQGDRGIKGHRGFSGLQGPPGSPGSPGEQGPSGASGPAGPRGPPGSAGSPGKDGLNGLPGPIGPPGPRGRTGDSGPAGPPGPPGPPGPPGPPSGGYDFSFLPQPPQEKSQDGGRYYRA
T1 sequence (P02466 86-1125 limits assumed): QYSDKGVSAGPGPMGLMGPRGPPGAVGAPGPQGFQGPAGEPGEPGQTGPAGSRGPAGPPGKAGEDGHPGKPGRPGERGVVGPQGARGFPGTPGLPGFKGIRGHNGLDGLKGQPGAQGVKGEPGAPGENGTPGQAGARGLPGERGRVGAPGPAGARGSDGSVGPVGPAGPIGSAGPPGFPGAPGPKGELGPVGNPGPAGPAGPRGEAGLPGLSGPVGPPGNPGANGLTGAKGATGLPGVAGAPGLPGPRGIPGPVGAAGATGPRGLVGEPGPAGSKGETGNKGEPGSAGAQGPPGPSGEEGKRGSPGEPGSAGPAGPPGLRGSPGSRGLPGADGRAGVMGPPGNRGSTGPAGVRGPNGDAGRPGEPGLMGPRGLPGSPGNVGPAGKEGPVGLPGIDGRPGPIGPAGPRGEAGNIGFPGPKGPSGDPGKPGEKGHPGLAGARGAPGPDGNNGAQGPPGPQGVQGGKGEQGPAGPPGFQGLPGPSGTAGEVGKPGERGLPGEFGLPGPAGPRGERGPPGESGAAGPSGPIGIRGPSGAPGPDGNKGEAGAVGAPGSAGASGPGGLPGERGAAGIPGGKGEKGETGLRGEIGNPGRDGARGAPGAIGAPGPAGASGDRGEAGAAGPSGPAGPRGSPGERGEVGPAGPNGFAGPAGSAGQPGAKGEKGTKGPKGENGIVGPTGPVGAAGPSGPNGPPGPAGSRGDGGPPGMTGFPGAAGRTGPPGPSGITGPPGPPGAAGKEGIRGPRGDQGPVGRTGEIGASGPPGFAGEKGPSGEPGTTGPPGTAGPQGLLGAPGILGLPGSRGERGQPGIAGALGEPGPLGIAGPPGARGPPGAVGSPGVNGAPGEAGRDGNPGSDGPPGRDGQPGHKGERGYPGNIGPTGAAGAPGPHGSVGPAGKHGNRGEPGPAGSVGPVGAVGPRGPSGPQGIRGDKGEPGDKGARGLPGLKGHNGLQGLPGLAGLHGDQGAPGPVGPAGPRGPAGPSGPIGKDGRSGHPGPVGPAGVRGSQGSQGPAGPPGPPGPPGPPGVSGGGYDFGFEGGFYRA

Consider gellan, for which the “dose required to achieve a 50% reduction in turbidity (rank order; higher degree of sulphonation requires lower dose)” value in assay [1] was “lota > lambda > gellan”.

Take iota carrageenan: in assay [1], the “dose required to achieve a 50% reduction in turbidity (rank order; higher degree of sulphonation requires lower dose)” value was “lota > lambda > gellan” and the “inhibition of collagen fibrillogenesis / collagen fibril formation” value was “inhibit collagen fibril formation”. Take kappa carrageenan: the “inhibition of collagen fibrillogenesis / collagen fibril formation” value in assay [1] is “inhibit collagen fibril formation”. Same read-out and setting: the same measure for dextran sulphate: “dose-dependent ability to inhibit collagen fibrillogenesis”. As for `CC(C)OC(=O)CCC/C=C\C[C@@H]1[C@@H](CC[C@@H](O)CCc2ccccc2)[C@H](O)C[C@@H]1O` [SOC, latanoprost], the “IOP compared to glaucomatous eyes without any treatment” value in assay [2] is “significantly reduced IOP”.

Consider heparan sulphate, for which the “inhibition of collagen fibrillogenesis / collagen fibril formation” value in assay [1] is “inhibit collagen fibrillogenesis (indicative of an anti-fibrotic activity) in a dose-dependent manner; also recorded: inhibit collagen fibril formation”. Same read-out and setting: the result for carrageenan reads “inhibit collagen fibrillogenesis (indicative of an anti-fibrotic activity) in a dose-dependent manner”.
